From publication PMC4935606 (Organic & biomolecular chemistry, 2016)

Legend:
cells = conditions: ref 7b; cited from earlier work
tumor cell = conditions: cited from earlier work
[1] = Side-by-side LCMS/UV solution stability study; format: physicochemical; conditions: 0.1 mg/mL in DMSO/H2O (5:1), within 24 h
[2] = Spontaneous conversion of 1 to 13 under the assay conditions; format: physicochemical; conditions: 90 min, in the presence or absence of DTT
recombinant human PTP4A3 = recombinant human PTP4A3 (Homo sapiens, UniProt O75365); experiment: In vitro PTP4A3 phosphatase inhibition assay with DiFMUP substrate; format: biochemical
Sequence of recombinant human PTP4A3 (O75365 whole entry): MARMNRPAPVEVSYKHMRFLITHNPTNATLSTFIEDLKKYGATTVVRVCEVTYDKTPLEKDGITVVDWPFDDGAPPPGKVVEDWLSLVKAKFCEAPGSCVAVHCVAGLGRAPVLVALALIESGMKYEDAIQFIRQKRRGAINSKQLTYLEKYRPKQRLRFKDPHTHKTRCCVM

SMILES | Short-term cytotoxicity in cells (cells) | Inhibition of tumor cell anchorage-independent growth (tumor cell) | Decomposition [1] | Spontaneous conversion of 1 to 13 [2] | PTP4A3 inhibition (in words) (recombinant human PTP4A3; qualitative statement) | IC50 (recombinant human PTP4A3; read-out: IC50 [µM±S.D.], inhibition of PTP4A3 activity, n=3, DiFMUP 12 µM, 25 °C, 30 min, pH 7.0, 4 mM DTT)
Nc1c[nH]c(=O)c2cc(-c3ccccc3)sc12 [Compound 1] | does not have any short-term cytotoxicity | Significant inhibition | > 80% | ≤ 5% |  | 
O=c1[nH]ccc2sc(-c3ccccc3)cc12 [Compound 12] |  |  |  |  | remarkably less active than 1 | > 80 µM
